These compounds were tested against T1, CDK9 (Homo sapiens, UniProt P50750) (assay: CDK9 degradation by HiBit assay, NCIH211 cells). Settings: NCIH211 cells with endogenously tagged N-terminal CDK9-HiBit, 24 hours incubation; read-out: HiBit-NCIH211.2 DC50.
T1 construct: NCIH211 cells with endogenously tagged N-terminal CDK9-HiBit; endogenous in cells; host or cells: NCIH211 cells (endogenous CDK9 locus tagged with HiBit)
Assay type: cell-based
Method: Exemplary compounds of the invention were tested for degradation of CDK9. The compounds were tested in 10-dose DC50 duplicate mode with a 3-fold serial dilution starting at 10 μM by HiBit assay (Promega, Inc) as a direct measurement of CDK9 presence, with incubation time of 24 hours using either NCIH211 cells with endogenously tagged N-terminal CDK9-HiBit or NCIH1048 cells with endogenously tagged N-terminal CDK9-HiBit. A control compound (THAL-SNS-032, CAS 2139287-33-3) was tested in 10-dose DC50 mode with 3-fold serial dilution starting at 10 μM. Data was normalized to positive (medium only) and negative (cells with no treatment) controls and curve fits were analyzed with CDK9 as % response vs. log [compound concentration] using a 4-parameter logistic model by GraphPad software. For Table 2: A is <100, B is <1000 C is <10,000, D is >10,000 and ND is Not Determined.

T1 sequence (P50750 whole entry): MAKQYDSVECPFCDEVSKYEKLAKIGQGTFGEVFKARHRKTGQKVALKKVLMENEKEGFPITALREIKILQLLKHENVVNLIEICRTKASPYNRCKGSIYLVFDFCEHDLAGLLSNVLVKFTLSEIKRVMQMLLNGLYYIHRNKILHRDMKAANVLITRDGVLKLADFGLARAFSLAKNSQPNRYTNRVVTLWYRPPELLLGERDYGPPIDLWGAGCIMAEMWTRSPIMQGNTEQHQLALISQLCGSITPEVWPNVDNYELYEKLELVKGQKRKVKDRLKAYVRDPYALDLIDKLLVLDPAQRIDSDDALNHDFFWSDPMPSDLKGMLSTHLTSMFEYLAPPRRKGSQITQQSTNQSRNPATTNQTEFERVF
T1 sequence (O60563 whole entry partner): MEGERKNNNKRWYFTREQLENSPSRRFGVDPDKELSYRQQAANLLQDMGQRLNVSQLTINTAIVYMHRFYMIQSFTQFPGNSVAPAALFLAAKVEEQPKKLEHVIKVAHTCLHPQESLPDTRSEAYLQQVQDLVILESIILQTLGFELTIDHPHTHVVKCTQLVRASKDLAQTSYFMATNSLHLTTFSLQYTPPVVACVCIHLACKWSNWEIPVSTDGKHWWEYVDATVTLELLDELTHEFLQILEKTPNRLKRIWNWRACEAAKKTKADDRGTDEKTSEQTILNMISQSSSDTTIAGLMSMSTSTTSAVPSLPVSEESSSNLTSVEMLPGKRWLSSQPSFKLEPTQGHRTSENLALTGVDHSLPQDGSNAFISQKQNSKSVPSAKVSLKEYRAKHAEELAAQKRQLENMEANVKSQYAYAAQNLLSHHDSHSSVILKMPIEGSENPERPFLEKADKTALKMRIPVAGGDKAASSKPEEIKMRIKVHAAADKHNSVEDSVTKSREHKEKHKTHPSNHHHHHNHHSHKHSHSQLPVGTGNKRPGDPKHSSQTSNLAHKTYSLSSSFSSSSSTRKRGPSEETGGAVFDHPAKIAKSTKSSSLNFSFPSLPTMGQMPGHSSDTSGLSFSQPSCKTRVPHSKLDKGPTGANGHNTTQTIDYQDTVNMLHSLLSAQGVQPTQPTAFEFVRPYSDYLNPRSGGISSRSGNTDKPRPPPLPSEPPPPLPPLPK

Row | DC50 [µM] | Compound
1 | > 10 | CCC(CC)c1cc(N[C@H]2CC[C@H](NCc3cn(CCOCCOCCOCCOCC(=O)N[C@H](C(=O)N4C[C@H](O)C[C@H]4C(=O)NCc4ccc(-c5scnc5C)cc4)C(C)(C)C)nn3)C2)n2nccc2n1 [Compound 36.0]
2 | > 10 | CCC(CC)c1cc(N[C@H]2CC[C@H](NCCOCCOCCOCCn3cc(CNc4cccc5c4C(=O)N(C4CCC(=O)NC4=O)C5=O)nn3)C2)n2ncc(Cl)c2n1 (stereo partly shown) [Compound 16.0]
3 | < 10 | CCC(CC)c1cc(N[C@H]2CC[C@H](NCC(C)N3CCN(CCNc4cccc5c4C(=O)N(C4CCC(=O)NC4=O)C5=O)CC3)C2)n2nccc2n1 (stereo partly drawn) [Compound 17.0, 2-(2,6-dioxo-3-piperidyl)-4-[2-[4-[2-[[(1S,3S)-3-[[5-(1-ethylpropyl)pyrazolo[1,5-a]pyrimidin-7-yl]amino]cyclopentyl]amino]-1-methyl-ethyl]piperazin-1-yl]ethylamino]isoindoline-1,3-dione]
4 | > 10 | CCC(CC)c1cc(N[C@H]2CC[C@H](NC(=O)COCCOCCNC(=O)COc3cccc4c3C(=O)N(C3CCC(=O)NC3=O)C4=O)C2)n2ncc(Cl)c2n1 (stereo partly drawn) [Compound 4.0, N-[(1S,3S)-3-[[3-chloro-5-(1-ethylpropyl)pyrazolo[1,5-a]pyrimi-din-7-yl]amino]cyclopentyl]-2-[2-[2-[[2-[2-(2,6-dioxo-3-piperidyl)-1,3-dioxo-isoindolin-4-yl]oxyacetyl]amino]ethoxy]ethoxy]acetamide]
5 | > 10 | CCC(CC)c1cc(N[C@H]2CC[C@H](NCC(=O)NCCCc3cn(CCOCCOCC(=O)N[C@H](C(=O)N4C[C@H](O)C[C@H]4C(=O)NCc4ccc(-c5scnc5C)cc4)C(C)(C)C)nn3)C2)n2ncc(Cl)c2n1 [Compound 44.0]
6 | > 10 | CCC(CC)c1cc(N[C@H]2CC[C@H](NCc3cn(CCOCCOCCOCCOCCOc4cc(-c5scnc5C)ccc4CNC(=O)[C@@H]4C[C@@H](O)CN4C(=O)[C@H](C(C)C)N4Cc5ccccc5C4=O)nn3)C2)n2nccc2n1 [Compound 40.0]
7 | > 10 | CCC(CC)c1cc(N[C@H]2CC[C@H](NCC(=O)NCCCn3cc(CCOCCNc4cccc5c4C(=O)N(C4CCC(=O)NC4=O)C5=O)nn3)C2)n2nccc2n1 (stereo partly shown) [Compound 20.0]
8 | > 10 | CCC(CC)c1cc(N[C@H]2CC[C@H](NCC(=O)NCc3cn(CCOCCOCCOCC(=O)N[C@H](C(=O)N4C[C@H](O)C[C@H]4C(=O)NCc4ccc(-c5scnc5C)cc4)C(C)(C)C)nn3)C2)n2nccc2n1 [Compound 27.0]
9 | > 10 | CCC(CC)c1cc(N[C@H]2CC[C@H](NCC(=O)NCCCc3cn(CCOCCOCCOCC(=O)N[C@H](C(=O)N4C[C@H](O)C[C@H]4C(=O)NCc4ccc(-c5scnc5C)cc4)C(C)(C)C)nn3)C2)n2ncc(Cl)c2n1 [Compound 42.0]
10 | > 10 | CCC(CC)c1cc(N[C@H]2CC[C@H](NCC(=O)NCc3cn(CCOCCOCC(=O)N[C@H](C(=O)N4C[C@H](O)C[C@H]4C(=O)NCc4ccc(-c5scnc5C)cc4)C(C)(C)C)nn3)C2)n2nccc2n1 [Compound 26.0]
11 | > 10 | CCC(CC)c1cc(N[C@H]2CC[C@H](NCC(=O)NCc3cn(CCOCCOCCOCCOc4cc(-c5scnc5C)ccc4CNC(=O)[C@@H]4C[C@@H](O)CN4C(=O)[C@H](C(C)C)N4Cc5ccccc5C4=O)nn3)C2)n2nccc2n1 [Compound 31.0]
12 | < 10 | CCC(CC)c1cc(N[C@H]2CC[C@H](NCCOCCOCCOCCOCCNc3cccc4c3C(=O)N(C3CCC(=O)NC3=O)C4=O)C2)n2ncc(Cl)c2n1 (stereo partly drawn) [Compound 13.0, 4-[2-[2-[2-[2-[2-[[(1S,3S)-3-[[3-chloro-5-(1-ethylpropyl)pyrazolo[1,5-a]pyrimidin-7-yl]amino]cyclopentyl]amino]ethoxy]ethoxy]ethoxy]ethoxy]ethylamino]-2-(2,6-dioxo-3-piperidyl)isoindoline-1,3-dione]
13 | < 10 | CCC(CC)c1cc(N[C@H]2CC[C@H](NCc3cn(CCOCCOCCOCCNc4cccc5c4C(=O)N(C4CCC(=O)NC4=O)C5=O)nn3)C2)n2nccc2n1 (stereo partly drawn) [Compound 10.0, 2-(2,6-dioxo-3-piperidyl)-4-[2-[2-[2-[2-[4-[[[(1S,3S)-3-[[5-(1-ethylpropyl)pyrazolo[1,5-a]pyrimidin-7-yl]amino]cyclopentyl]amino]methyl]triazol-1-yl]ethoxy]ethoxy]ethoxy]ethylamino]isoindoline-1,3-dione]
14 | > 10 | CCC(CC)c1cc(N[C@H]2CC[C@H](NCC(=O)NCc3cn(CCOCCOc4cc(-c5scnc5C)ccc4CNC(=O)[C@@H]4C[C@@H](O)CN4C(=O)[C@H](C(C)C)N4Cc5ccccc5C4=O)nn3)C2)n2nccc2n1 [Compound 29.0]
15 | > 10 | CCC(CC)c1cc(N[C@H]2CC[C@H](NCc3cn(CCOCCOCCOCCOc4cc(-c5scnc5C)ccc4CNC(=O)[C@@H]4C[C@@H](O)CN4C(=O)[C@H](C(C)C)N4Cc5ccccc5C4=O)nn3)C2)n2nccc2n1 [Compound 39.0]
16 | > 10 | CCC(CC)c1cc(N[C@H]2CC[C@H](NCC(=O)NCCCc3cn(CCOCCNc4cccc5c4C(=O)N(C4CCC(=O)NC4=O)C5=O)nn3)C2)n2nccc2n1 (stereo partly shown) [Compound 22.0]
17 | < 1 | CCC(CC)c1cc(N[C@H]2CC[C@H](NCC(=O)NCCCn3cc(CCOCCNc4cccc5c4C(=O)N(C4CCC(=O)NC4=O)C5=O)nn3)C2)n2ncc(Cl)c2n1 (stereo partly shown) [Compound 24.0]
18 | > 10 | CCC(CC)c1cc(N[C@H]2CC[C@H](NCc3cn(CCOCCOCCOCC(=O)N[C@H](C(=O)N4C[C@H](O)C[C@H]4C(=O)NCc4ccc(-c5scnc5C)cc4)C(C)(C)C)nn3)C2)n2nccc2n1 [Compound 35.0]
19 | > 10 | CCC(CC)c1cc(N[C@H]2CC[C@H](NC(=O)COCCOCCOCCNC(=O)COc3cccc4c3C(=O)N(C3CCC(=O)NC3=O)C4=O)C2)n2nccc2n1 (stereo partly drawn) [Compound 2.0, 2-[2-[2-[2-[[2-[2-(2,6-dioxo-3-piperidyl)-1,3-dioxo-isoindolin-4-yl]oxyacetyl]amino]ethoxy]ethoxy]ethoxy]-N-[(1S,3S)-3-[[5-(1-ethylpropyl)pyrazolo[1,5-a]pyrimidin-7-yl]amino]cyclopentyl]acetamide]
20 | > 10 | CCC(CC)c1cc(N[C@H]2CC[C@H](NC(=O)COCCOCCOCCNC(=O)COc3cccc4c3C(=O)N(C3CCC(=O)NC3=O)C4=O)C2)n2ncc(Cl)c2n1 (stereo partly drawn) [Compound 3.0, N-[(1S,3S)-3-[[3-chloro-5-(1-ethylpropyl)pyrazolo[1,5-a]pyrimidin-7-yl]amino]cyclopentyl]-2-[2-[2-[2-[[2-[2-(2,6-dioxo-3-piperidyl)-1,3-dioxo-isoindolin-4-yl]oxyacetyl]amino]ethoxy]ethoxy]ethoxy]acetamide]
21 | > 10 | CCC(CC)c1cc(N[C@H]2CC[C@H](NCC(=O)NCc3cn(CCOCCOCCOCCOCCOc4cc(-c5scnc5C)ccc4CNC(=O)[C@@H]4C[C@@H](O)CN4C(=O)[C@H](C(C)C)N4Cc5ccccc5C4=O)nn3)C2)n2nccc2n1 [Compound 32.0]
22 | < 10 | CCC(CC)c1cc(N[C@H]2CC[C@H](NCCN3CCN(CCNc4cccc5c4C(=O)N(C4CCC(=O)NC4=O)C5=O)CC3)C2)n2nccc2n1 (stereo partly drawn) [Compound 19.0, 2-(2,6-dioxo-3-piperidyl)-4-[2-[4-[2-[[(1S,3S)-3-[[5-(1-ethylpropyl)pyrazolo[1,5-a]pyrimidin-7-yl]amino]cyclopentyl]amino]ethyl]piperazin-1-yl]ethylamino]isoindoline-1,3-dione]
23 | > 10 | CCC(CC)c1cc(N[C@H]2CC[C@H](NCc3cn(CCOCCOCC(=O)N[C@H](C(=O)N4C[C@H](O)C[C@H]4C(=O)NCc4ccc(-c5scnc5C)cc4)C(C)(C)C)nn3)C2)n2nccc2n1 [Compound 34.0]
24 | > 10 | CCC(CC)c1cc(N[C@H]2CC[C@H](NCC(=O)NCCCc3cn(CCOCC(=O)N[C@H](C(=O)N4C[C@H](O)C[C@H]4C(=O)NCc4ccc(-c5scnc5C)cc4)C(C)(C)C)nn3)C2)n2ncc(Cl)c2n1 [Compound 43.0]
25 | > 10 | CCC(CC)c1cc(N[C@H]2CC[C@H](NCC(=O)NCc3cn(CCOCCOCCOCCOCC(=O)N[C@H](C(=O)N4C[C@H](O)C[C@H]4C(=O)NCc4ccc(-c5scnc5C)cc4)C(C)(C)C)nn3)C2)n2nccc2n1 [Compound 28.0]
26 | < 10 | CCC(CC)c1cc(N[C@H]2CC[C@H](NCc3cn(CCOCCOCCNc4cccc5c4C(=O)N(C4CCC(=O)NC4=O)C5=O)nn3)C2)n2nccc2n1 (stereo partly drawn) [Compound 9.0, 2-(2,6-dioxo-3-piperidyl)-4-[2-[2-[2-[4-[[[(1S,3S)-3-[[5-(1-ethylpropyl)pyrazolo[1,5-a]pyrimidin-7-yl]amino]cyclopentyl]amino]methyl]triazol-1-yl]ethoxy]ethoxy]ethylamino]isoindoline-1,3-dione]
27 | > 10 | CCC(CC)c1cc(N[C@H]2CC[C@H](NCc3cn(CCOCC(=O)N[C@H](C(=O)N4C[C@H](O)C[C@H]4C(=O)NCc4ccc(-c5scnc5C)cc4)C(C)(C)C)nn3)C2)n2nccc2n1 [Compound 33.0]
28 | > 10 | CCC(CC)c1cc(N[C@H]2CC[C@H](NCCN3CCN(CCOCC(=O)N[C@H](C(=O)N4C[C@H](O)C[C@H]4C(=O)NCc4ccc(-c5scnc5C)cc4)C(C)(C)C)CC3)C2)n2nccc2n1 [Compound 18.0, (2S,4R)-1-[(2S)-2-[[2-[2-[4-[2-[[(1S,3S)-3-[[5-(1-ethylpropyl)pyrazolo[1,5-a]pyrimidin-7-yl]amino]cyclopentyl]amino]ethyl]piperazin-1-yl]ethoxy]acetyl]amino]-3,3-dimethyl-butanoyl]-4-hydroxy-N-[[4-(4-methylthiazol-5-yl)phenyl]methyl]pyrrolidine-2-carboxamide]

Reference: patent US20250188084A1, “COMPOUNDS AND METHODS FOR MODULATING CDK9 ACTIVITY” (KRONOS BIO, INC., priority 2020, published 2025)
